In series [1] the target is T1, PARP2 (Homo sapiens, UniProt Q9UGN5).
T1 construct: purchased BPS Bioscience (San Diego, CA)
Further details: method as in PMID 34482781. To be noted: values greater than 1.0 indicate selectivity towards PARP2; cited from earlier work.

For series [2], the target named is T2, PARP1 (Homo sapiens, UniProt P09874).
T2 construct: purchased BPS Bioscience (San Diego, CA)
The series can be described thus: PARP1 colorimetric activity assay kit (BPS Bioscience). The format is biochemical. To be noted: dose-response, mean ± SD, n = 3.

In series [3] the target is T2, PARP1. The description is as above. To be noted: 1 µM concentration of the inhibitor, mean ± SD, n = 3. The class given is biochemical. As for the experimental part: The initial screening was performed against PARP1 at 1 µM concentration of each compound, in triplicate (n = 3) measurements.
The target of series [4] is T1, PARP2. Description: PARP2 colorimetric activity assay kit (BPS Bioscience). The class given is biochemical. To be noted: for IC50: dose-response, mean ± SD, n = 3; for SI (selectivity index) IC50(PARP1)/IC50(PARP2): values greater than 1.0 indicate selectivity towards PARP2.
Series [5] in a line: Solubility in pH 7.4 phosphate buffer. The note with it: aqueous buffer; pH 7.4 0.01 M phosphate buffer solution. The format is physicochemical.
Series [6] can be described thus: Stability in the presence of hepatic S9 fraction. The class given is in vitro ADME.
Series [7] can be described thus: Stability in the presence of human liver microsomes. The class given is in vitro ADME.
Series [8] can be described thus: Stability in human plasma. The class given is in vitro ADME. The note with it: after incubation (4 h) with human plasma.
The nature of a further series: Plasma protein binding. The format is in vitro ADME.

Where two headings read alike, the source gives them in different places.

T2 sequence (P09874 whole entry): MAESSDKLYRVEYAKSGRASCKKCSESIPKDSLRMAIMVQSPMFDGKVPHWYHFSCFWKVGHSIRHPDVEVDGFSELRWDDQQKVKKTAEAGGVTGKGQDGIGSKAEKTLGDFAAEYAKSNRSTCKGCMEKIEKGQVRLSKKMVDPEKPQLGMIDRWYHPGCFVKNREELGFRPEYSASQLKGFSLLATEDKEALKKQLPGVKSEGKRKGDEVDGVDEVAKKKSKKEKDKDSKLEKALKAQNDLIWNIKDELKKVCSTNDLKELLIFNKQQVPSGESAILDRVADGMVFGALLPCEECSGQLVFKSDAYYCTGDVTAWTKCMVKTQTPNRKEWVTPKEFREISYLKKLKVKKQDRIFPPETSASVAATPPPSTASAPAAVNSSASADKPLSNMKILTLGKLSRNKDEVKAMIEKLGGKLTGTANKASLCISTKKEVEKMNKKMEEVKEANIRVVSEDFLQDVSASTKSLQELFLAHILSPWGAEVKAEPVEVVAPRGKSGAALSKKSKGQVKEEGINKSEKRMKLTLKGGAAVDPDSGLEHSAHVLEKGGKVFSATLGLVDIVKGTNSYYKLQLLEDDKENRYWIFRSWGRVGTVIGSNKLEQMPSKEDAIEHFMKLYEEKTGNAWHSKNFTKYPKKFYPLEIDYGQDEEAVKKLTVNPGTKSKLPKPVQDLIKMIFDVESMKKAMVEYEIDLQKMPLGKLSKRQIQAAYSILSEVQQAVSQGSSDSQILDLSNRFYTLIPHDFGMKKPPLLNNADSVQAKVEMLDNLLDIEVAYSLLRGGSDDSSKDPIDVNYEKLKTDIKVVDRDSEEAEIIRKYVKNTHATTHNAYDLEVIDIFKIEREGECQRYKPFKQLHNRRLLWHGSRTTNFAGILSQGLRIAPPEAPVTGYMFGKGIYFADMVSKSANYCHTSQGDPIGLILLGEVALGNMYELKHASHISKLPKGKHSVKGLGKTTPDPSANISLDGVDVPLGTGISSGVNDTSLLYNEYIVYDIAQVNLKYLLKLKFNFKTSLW
T1 sequence (Q9UGN5 whole entry): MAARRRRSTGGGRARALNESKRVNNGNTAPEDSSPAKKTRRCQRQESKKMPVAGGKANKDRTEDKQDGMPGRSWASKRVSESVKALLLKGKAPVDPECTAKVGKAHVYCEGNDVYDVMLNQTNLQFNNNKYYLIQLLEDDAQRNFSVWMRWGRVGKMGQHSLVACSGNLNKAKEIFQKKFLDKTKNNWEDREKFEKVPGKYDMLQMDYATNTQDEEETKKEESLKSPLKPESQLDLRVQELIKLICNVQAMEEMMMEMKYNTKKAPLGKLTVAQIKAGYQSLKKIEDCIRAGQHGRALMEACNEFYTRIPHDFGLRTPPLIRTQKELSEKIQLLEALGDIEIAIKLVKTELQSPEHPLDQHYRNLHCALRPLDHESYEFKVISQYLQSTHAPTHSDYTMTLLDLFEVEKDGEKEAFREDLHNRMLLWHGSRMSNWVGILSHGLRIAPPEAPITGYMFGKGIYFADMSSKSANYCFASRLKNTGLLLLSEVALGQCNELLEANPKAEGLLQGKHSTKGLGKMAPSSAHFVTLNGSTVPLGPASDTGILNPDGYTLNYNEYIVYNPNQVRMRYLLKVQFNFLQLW

Regarding `O=C1NCC(C(=O)N2CCC(N3CCCCC3)CC2)c2ccccc21` (stereo not shown) [Compound 1a], the “SI (selectivity index) IC50(PARP1)/IC50(PARP2)” value at PARP2 [1] is reported as 2.23.

`CC(C)[C@H]1NC(=O)c2ccccc2[C@@H]1C(=O)N1CCC(N2CCCCC2)CC1` [Compound 2d] came in with an IC50 against PARP1 [2] of 160 ± 18.6 nM.

`CC1(C)NC(=O)c2ccccc2[C@@H]1C(=O)N1CCC(N2CCCCC2)CC1` [Compound 2h] returned an inhibition at 1 µM on PARP1 [3] of 4 ± 7.4%.

Turning to `O=C1N[C@H](c2ccc(F)cc2)[C@@H](C(=O)N2CCC(N3CCCCC3)CC2)c2ccccc21` [Compound 2b], at PARP2 [4], the IC50 came to 39.9 ± 7.3 nM and the “SI (selectivity index) IC50(PARP1)/IC50(PARP2)” value came to 1.39. The molecule also showed a half-maximal inhibitory concentration (IC50) against PARP1 [2] of 55.4 ± 8.8 nM.

The molecule `O=C(c1cc(Cc2n[nH]c(=O)c3ccccc23)ccc1F)N1CCN(C(=O)C2CC2)CC1` [Olaparib, reference compound] displayed a solubility in series [5] greater than 100 µM. Also, the “Stability S9” value in [6] is 1.1 µL/min/mg. The “Stability HLM” value in series [7] is 15 µL/min/mg. Further, the “Stability Plasma (% compound remaining)” value in series [8] is listed as 100%. The “PPB (plasma protein binding)” value in “Plasma protein binding” is given as 90.2 % bound.

At PARP1 [3], `O=C1NC2(CCOCC2)[C@@H](C(=O)N2CCC(N3CCCCC3)CC2)c2ccccc21` [Compound 2j] had an inhibition at 1 µM of 5.1 ± 6.6%.

`CC[C@H]1NC(=O)c2ccccc2[C@@H]1C(=O)N1CCC(N2CCCCC2)CC1` [Compound 2c]: at PARP2 [4], the midpoint of inhibition, the IC50, lay at 11 ± 2.2 nM and the “SI (selectivity index) IC50(PARP1)/IC50(PARP2)” value is reported as 4.05. On PARP1 [2], this molecule showed an IC50 of 44.6 ± 5.6 nM.

Turning to `O=C1NC(C2CC2)C(C(=O)N2CCC(N3CCCCC3)CC2)c2ccc(F)cc21` (stereo not shown) [Compound 6, 4-([1,4′-bipiperidine]-1′-carbonyl)-3-cyclopropyl-7-fluoro-3,4-dihydroisoquinolin-1(2H)-one], at PARP2 [4], half-maximal inhibition (IC50) required 4.3 ± 0.5 nM and the “SI (selectivity index) IC50(PARP1)/IC50(PARP2)” value worked out at 5.1. For the same molecule, the solubility in series [5] is greater than 100 µM. Moreover, in series [6], the “Stability S9” value was determined as 0.1 µL/min/mg. Besides, the “Stability HLM” value in series [7] came to 3.8 µL/min/mg. For the same molecule, the “Stability Plasma (% compound remaining)” value in series [8] turned out to be 100%. Further, the “PPB (plasma protein binding)” value in the series “Plasma protein binding” amounted to 71.0 % bound. Besides, on PARP1 [2], the IC50 stood at 22 ± 3.2 nM.

For the molecule `C[C@H]1NC(=O)c2ccccc2[C@@H]1C(=O)N1CCC(N2CCCCC2)CC1` [Compound 2m], the IC50 was determined as 29.2 ± 3.4 nM against PARP2 [4] and 95.7 ± 17.7 nM against PARP1 [2]. The “SI (selectivity index) IC50(PARP1)/IC50(PARP2)” value on PARP2 [4] was determined as 3.28.

`CC(C)(C)[C@H]1NC(=O)c2ccccc2[C@@H]1C(=O)N1CCC(N2CCCCC2)CC1` [Compound 2f] gave an inhibition at 1 µM on PARP1 [3] of 24.1 ± 6%.

For `CC(C)C[C@H]1NC(=O)c2ccccc2[C@@H]1C(=O)N1CCC(N2CCCCC2)CC1` [Compound 2g], on PARP2 [4], the IC50 was found to be 105 ± 20.8 nM and the “SI (selectivity index) IC50(PARP1)/IC50(PARP2)” value is reported as 0.83. This molecule returned an IC50 against PARP1 [2] of 87 ± 8.3 nM.

Regarding `O=C1NC2(CCCC2)[C@@H](C(=O)N2CCC(N3CCCCC3)CC2)c2ccccc21` [Compound 2k], the inhibition at 1 µM against PARP1 [3] came out at 10.6 ± 9.7%.

As for `O=C1N[C@H](C2CC2)[C@@H](C(=O)N2CCC(N3CCCCC3)CC2)c2ccccc21` [Compound 2e], the IC50 against PARP2 [4] was determined as 18.3 ± 4.5 nM; at PARP1 [2], 26.4 ± 4.1 nM. At PARP2 [4], the “SI (selectivity index) IC50(PARP1)/IC50(PARP2)” value is reported as 1.44.

`O=C1NC2(CCCCC2)[C@@H](C(=O)N2CCC(N3CCCCC3)CC2)c2ccccc21` [Compound 2i]: the inhibition at 1 µM against PARP1 [3] was 12.1 ± 7.2%.

Consider `O=C1N[C@H](C2CCCC2)[C@@H](C(=O)N2CCC(N3CCCCC3)CC2)c2ccccc21` [Compound 2l], for which the IC50 against PARP2 [4] and against PARP1 [2] was greater than 500 nM each time.

With `O=C1N[C@H](c2ccccc2)[C@@H](C(=O)N2CCC(N3CCCCC3)CC2)c2ccccc21` [Compound 2a], on PARP2 [4], inhibition was half-maximal at 69.5 ± 12.8 nM (IC50) and the “SI (selectivity index) IC50(PARP1)/IC50(PARP2)” value is listed as 1.26. The same molecule showed an IC50 against PARP1 [2] of 87.9 ± 10.2 nM.
